Experimental data published in patent US20250127789A1, “COMPOSITIONS USEFUL FOR MODULATING SPLICING” (SKYHAWK THERAPEUTICS, INC., priority 2021, published 2025).

Experiments:
[1] = system: ATXN3 exon 4 skipped transcripts in SK-N-MC cells; assay: ATXN3 quantitative splicing assay (qPCR of exon 4 skipped transcripts); format: cell-based; conditions: Human neuroblastoma SK-N-MC cells, 24 h treatment, read-out: ATXN 3 E4 Skipping EC50
Procedure: Human neuroblastoma SK-N-MC cells were plated in 384-well plates at 20,000 cells/well. Twenty-four hours after plating, cells were treated with compounds for 24 hat appropriate concentrations ranging from 30 µM to 0.6 nM (0.3% DMSO). Treated cells were lysed in 15 μL of lysis buffer, and cDNA was synthesized using the Fast Advanced Cells-to-Ct kit Two μL of each cDNA was used in PCR reactions to confirm the exon 4 skipped transcripts of ATXN3. A second set of primers/probe E4E5 was used to detect the transcripts containing exon 4. The third set of primers/probe E8E9 was used to detect total gene level of ATXN3. The qPCR reactions were prepared in 384-well plates in 10 μL volume, using TaqMan™ Fast Advanced Master Mix with primers and probes shown in the table below. Reactions were run in a Quant Studio 6 qPCR instrument with default settings.
The primers and probes are listed below in Table 3.

[2] = system: total ATXN3 protein in SK-N-MC cells; assay: ATXN3 total protein assay (MSD); format: cell-based; conditions: Human neuroblastoma SK-N-MC cells, 48 hours incubation, read-out: ATXN3 Protein Potency IC50
Procedure: Human neuroblastoma SK-N-MC cells were seeded at 10,000 cells/well in 384 well plates one day prior to compound treatment. The concentrations of compounds were tested at appropriate doses ranging from 30 μM to 0.6 nM. After incubation for 48 hours, the cells were lysed with 25 μL of lysis buffer containing protease inhibitors, and total ATXN3 protein levels were assessed by Mesoscale Discovery (MSD) assay developed with one pair of anti-ATXN3 antibodies. The capture and detect antibodies were raised in mouse and rabbit respectively. Anti-rabbit MSD-ST antibody was used for secondary antibody.
ATXN3 recombinant protein was used for standards. The readouts were captured with 35 μL of MSD read buffer and multi-array 384-well high binding plates.

Compound | EC50 [1] [µM] | IC50 [2] [µM]
Cc1c(C[C@H](C)N)sc2c(NCc3ccccc3)nnnc12 [Compound 2, (S)-6-(2-aminopropyl)-N-benzyl-7-methylthieno[3,2-d][1,2,3]triazin-4-amine] | ≥ 10 | ≥ 10
Cc1csc2c(NCc3ccncc3)nnnc12 [Compound 3, 7-methyl-N-(pyridin-4-ylmethyl)thieno[3,2-d][1,2,3]triazin-4-amine] | ≥ 10 | ≥ 10
Cc1c(C[C@H](C)N)sc2c(NCc3ccncc3)nnnc12 [Compound 4, (S)-6-(2-aminopropyl)-7-methyl-N-(pyridin-4-ylmethyl)thieno[3,2-d][1,2,3]triazin-4-amine] | 0.501 to 5 | 0.501 to 5
Cc1csc2c(NCc3ccccc3)nnnc12 [Compound 1, N-benzyl-7-methylthieno[3,2-d][1,2,3]triazin-4-amine] | ≥ 10 | ≥ 10
